Measurements reported in EP4603105A1, “PHARMACEUTICAL COMPOSITION CONTAINING CYCLIC COMPOUND HAVING SELECTIVE KRAS INHIBITORY EFFECT AGAINST HRAS AND NRAS” (CHUGAI SEIYAKU KABUSHIKI KAISHA, priority 2022, dated 2024).
pIC50: −log10 of the molar value. Where a SMILES comes first, the peptide text is derived from it. Bridges are numbered along the chain shown (N, C = ends). [ ]: non-standard residue; d: D form. The star is where a group is joined. hPhe(3-Cl-4-CF3) = N[C@@H](CCc1ccc(C(F)(F)F)c(Cl)c1)C(=O)O; NPrPhe(4-CF3) = CCCN[C@@H](Cc1ccc(C(F)(F)F)cc1)C(=O)O; Pro(4-spirocPr) = O=C(O)[C@@H]1CC2(CC2)CN1; Morpholine(3S-CO) = O=C(O)[C@@H]1COCCN1; Pip(4,4-F2) = O=C(O)[C@@H]1CC(F)(F)CCN1; NMeGly(cPent) = CN[C@H](C(=O)O)C1CCCC1; Gly(cPent) = N[C@H](C(=O)O)C1CCCC1; Hyp = O=C(O)[C@@H]1C[C@@H](O)CN1; Gly(cBu) = N[C@H](C(=O)O)C1CCC1; NMeD = CN[C@@H](CC(=O)O)C(=O)O; NMeL = CN[C@@H](CC(C)C)C(=O)O; Pip = O=C(O)[C@@H]1CCCCN1; Morpholide = C1CN(*)CCO1; Ac5c = NC1(C(=O)O)CCCC1; Aze = O=C(O)[C@@H]1CCN1; NPrGly = CCCNCC(=O)O; NEtG = CCNCC(=O)O; Sar = CNCC(=O)O

Columns and labels:
[1] = biological target: GDP-bound NRAS wild-type protein (Homo sapiens, UniProt P01111); assay: Binding to NRAS by surface plasmon resonance (SPR), KD and KD ratio to KRAS; conditions: ratio of KD for GDP-bound NRAS wild-type protein to KD for KRAS
Outline: (§1)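 Running buffer contained 10 µM GDP and 10 mM MgCl2 to keep RAS in the GDP state, with 4% DMSO at pH 7.4. Compounds were flowed at 100 µL/min in 75 s steps of rising concentration over captured biotin-Avi RAS at 30°C. Sensorgrams were fitted 1:1 for KD.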

HRAS wild-type protein = HRAS wild-type protein (Homo sapiens, UniProt P01112); assay: Binding to HRAS by surface plasmon resonance (SPR), KD and KD ratio to KRAS; conditions: ratio of KD for HRAS wild-type protein to KD for KRAS
Outline: as §1

[2] = system: human lung cancer strain NCI-H441; type: cell-based
Outline: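 Step one: dispense the test compound in serial DMSO dilutions. Step three: add the reagent and measure […].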

Sequence of HRAS wild-type protein (P01112 whole entry): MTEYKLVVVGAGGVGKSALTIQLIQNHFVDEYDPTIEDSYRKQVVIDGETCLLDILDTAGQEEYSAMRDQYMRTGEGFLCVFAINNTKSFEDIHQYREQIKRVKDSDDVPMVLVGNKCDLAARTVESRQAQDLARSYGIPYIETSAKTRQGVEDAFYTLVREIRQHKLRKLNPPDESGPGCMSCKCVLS
Sequence of GDP-bound NRAS wild-type protein (P01111 whole entry): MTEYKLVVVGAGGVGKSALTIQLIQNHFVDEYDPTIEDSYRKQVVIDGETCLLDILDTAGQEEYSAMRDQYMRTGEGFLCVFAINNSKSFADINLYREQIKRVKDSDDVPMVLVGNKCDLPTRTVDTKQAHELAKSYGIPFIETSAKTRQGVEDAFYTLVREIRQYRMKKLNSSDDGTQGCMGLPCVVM

SMILES | pIC50 [2] | NRAS /KRAS [1] | HRAS /KRAS (HRAS wild-type protein)
CCCN1C(=O)CN(C)C(=O)CN(CC)C(=O)[C@H]([C@@H](C)CC)NC(=O)[C@H](CC(C)C)N(C)C(=O)C[C@@H](C(=O)N2CCOCC2)N(C)C(=O)[C@H](C2CCCC2)N(C)C(=O)C2(CCCC2)NC(=O)[C@@H]2CCN2C(=O)[C@H](CCc2ccc(C(F)(F)F)c(Cl)c2)NC(=O)CN(C)C(=O)[C@@H]1Cc1ccc(C(F)(F)F)cc1 [PP0294] ([NMeL]I[NEtG][Sar][NPrPhe(4-CF3)][Sar][hPhe(3-Cl-4-CF3)][Aze][Ac5c][NMeGly(cPent)][NMeD]-Morpholide; lactam N-11) | 7.26 | B (a compound having 3 or more and less than 10 is denoted as B) | C (A compound having a KD ratio of 0.1 or more and less than 3 is denoted as C)
CCCN1C(=O)CN(C)C(=O)CN(CC)C(=O)[C@H]([C@@H](C)CC)NC(=O)[C@H](CC(C)C)N(C)C(=O)C[C@@H](C(=O)N2CCOCC2)N(C)C(=O)[C@H](C2CCCC2)N(C)C(=O)C2(CCCC2)NC(=O)[C@@H]2CC(F)(F)CCN2C(=O)[C@H](CCc2ccc(C(F)(F)F)c(Cl)c2)NC(=O)CN(C)C(=O)[C@@H]1Cc1ccc(C(F)(F)F)cc1 [PP0298] ([NMeL]I[NEtG][Sar][NPrPhe(4-CF3)][Sar][hPhe(3-Cl-4-CF3)][Pip(4,4-F2)][Ac5c][NMeGly(cPent)][NMeD]-Morpholide; lactam N-11) | 7.39 | B (a compound having 3 or more and less than 10 is denoted as B) | C (A compound having a KD ratio of 0.1 or more and less than 3 is denoted as C)
CCCN1C(=O)CN(C)C(=O)CN(CC)C(=O)[C@H]([C@@H](C)CC)NC(=O)[C@H](CC(C)C)N(C)C(=O)C[C@@H](C(=O)N2CCOCC2)N(C)C(=O)[C@H](C2CCCC2)N(C)C(=O)C2(CCCC2)NC(=O)CN(C)C(=O)[C@H](CCc2ccc(C(F)(F)F)c(Cl)c2)NC(=O)CN(C)C(=O)[C@@H]1Cc1ccc(C(F)(F)F)cc1 [PP0300] ([NMeL]I[NEtG][Sar][NPrPhe(4-CF3)][Sar][hPhe(3-Cl-4-CF3)][Sar][Ac5c][NMeGly(cPent)][NMeD]-Morpholide; lactam N-11) | 7.13 | B (a compound having 3 or more and less than 10 is denoted as B) | C (A compound having a KD ratio of 0.1 or more and less than 3 is denoted as C)
CCCN1CC(=O)NC2(CCCC2)C(=O)N(C)[C@@H](C2CCCC2)C(=O)N(C)[C@H](C(=O)N2CCOCC2)CC(=O)N(C)[C@@H](CC(C)C)C(=O)N[C@@H]([C@@H](C)CC)C(=O)N(CC)CC(=O)N(C)CC(=O)N(CCC)[C@@H](Cc2ccc(C(F)(F)F)cc2)C(=O)N(C)CC(=O)N[C@@H](CCc2ccc(C(F)(F)F)c(Cl)c2)C1=O [PP0301] ([NMeL]I[NEtG][Sar][NPrPhe(4-CF3)][Sar][hPhe(3-Cl-4-CF3)][NPrGly][Ac5c][NMeGly(cPent)][NMeD]-Morpholide; lactam N-11) | 7.05 | B (a compound having 3 or more and less than 10 is denoted as B) | C (A compound having a KD ratio of 0.1 or more and less than 3 is denoted as C)
CCCN1C(=O)CN(C)C(=O)[C@@H]2CCN2C(=O)[C@H](C2CCC2)NC(=O)[C@H](CC(C)C)N(C)C(=O)C[C@@H](C(=O)N2CCOCC2)N(C)C(=O)[C@H](C2CCCC2)N(C)C(=O)C2(CCCC2)NC(=O)[C@@H]2CCCN2C(=O)[C@H](CCc2ccc(C(F)(F)F)c(Cl)c2)NC(=O)CN(C)C(=O)[C@@H]1Cc1ccc(C(F)(F)F)cc1 [PP0305] ([NMeL][Gly(cBu)][Aze][Sar][NPrPhe(4-CF3)][Sar][hPhe(3-Cl-4-CF3)]P[Ac5c][NMeGly(cPent)][NMeD]-Morpholide; lactam N-11) | 7.30 | B (a compound having 3 or more and less than 10 is denoted as B) | C (A compound having a KD ratio of 0.1 or more and less than 3 is denoted as C)
CCCN1C(=O)CN(C)C(=O)[C@@H]2CCN2C(=O)[C@H]([C@@H](C)CC)NC(=O)[C@H](CC(C)C)N(C)C(=O)C[C@@H](C(=O)N2CCOCC2)N(C)C(=O)[C@H](C2CCCC2)N(C)C(=O)C2(CCCC2)NC(=O)[C@@H]2CCCCN2C(=O)[C@H](CCc2ccc(C(F)(F)F)c(Cl)c2)NC(=O)CN(C)C(=O)[C@@H]1Cc1ccc(C(F)(F)F)cc1 [PP0311] ([NMeL]I[Aze][Sar][NPrPhe(4-CF3)][Sar][hPhe(3-Cl-4-CF3)][Pip][Ac5c][NMeGly(cPent)][NMeD]-Morpholide; lactam N-11) | 6.83 | B (a compound having 3 or more and less than 10 is denoted as B) | B (a compound having 3 or more and less than 10 is denoted as B)
CCCN1C(=O)CN(C)C(=O)[C@@H]2CCN2C(=O)[C@H]([C@@H](C)CC)NC(=O)[C@H](CC(C)C)N(C)C(=O)C[C@@H](C(=O)N2CCOCC2)N(C)C(=O)[C@H](C2CCCC2)N(C)C(=O)C2(CCCC2)NC(=O)[C@@H]2CC(F)(F)CCN2C(=O)[C@H](CCc2ccc(C(F)(F)F)c(Cl)c2)NC(=O)CN(C)C(=O)[C@@H]1Cc1ccc(C(F)(F)F)cc1 [PP0312] ([NMeL]I[Aze][Sar][NPrPhe(4-CF3)][Sar][hPhe(3-Cl-4-CF3)][Pip(4,4-F2)][Ac5c][NMeGly(cPent)][NMeD]-Morpholide; lactam N-11) | 7.08 | B (a compound having 3 or more and less than 10 is denoted as B) | B (a compound having 3 or more and less than 10 is denoted as B)

Now those with a higher pIC50 [2], led by results:

pIC50 [2] | SMILES | NRAS /KRAS [1] | HRAS /KRAS (HRAS wild-type protein)
7.42 | CCCN1C(=O)CN(C)C(=O)CN(CC)C(=O)[C@H](C2CCCC2)NC(=O)[C@H](CC(C)C)N(C)C(=O)C[C@@H](C(=O)N2CCOCC2)N(C)C(=O)[C@H](C2CCCC2)N(C)C(=O)C2(CCCC2)NC(=O)[C@@H]2CCCN2C(=O)[C@H](CCc2ccc(C(F)(F)F)c(Cl)c2)NC(=O)CN(C)C(=O)[C@@H]1Cc1ccc(C(F)(F)F)cc1 [PP0293] ([NMeL][Gly(cPent)][NEtG][Sar][NPrPhe(4-CF3)][Sar][hPhe(3-Cl-4-CF3)]P[Ac5c][NMeGly(cPent)][NMeD]-Morpholide; lactam N-11) | B (a compound having 3 or more and less than 10 is denoted as B) | C (A compound having a KD ratio of 0.1 or more and less than 3 is denoted as C)
7.44 | CCCN1C(=O)CN(C)C(=O)CN(CC)C(=O)[C@H](C2CCC2)NC(=O)[C@H](CC(C)C)N(C)C(=O)C[C@@H](C(=O)N2CCOCC2)N(C)C(=O)[C@H](C2CCCC2)N(C)C(=O)C2(CCCC2)NC(=O)[C@@H]2CCCN2C(=O)[C@H](CCc2ccc(C(F)(F)F)c(Cl)c2)NC(=O)CN(C)C(=O)[C@@H]1Cc1ccc(C(F)(F)F)cc1 [PP0292] ([NMeL][Gly(cBu)][NEtG][Sar][NPrPhe(4-CF3)][Sar][hPhe(3-Cl-4-CF3)]P[Ac5c][NMeGly(cPent)][NMeD]-Morpholide; lactam N-11) | B (a compound having 3 or more and less than 10 is denoted as B) | C (A compound having a KD ratio of 0.1 or more and less than 3 is denoted as C)
7.48 | CCCN1C(=O)CN(C)C(=O)CN(CC)C(=O)[C@H]([C@@H](C)CC)NC(=O)[C@H](CC(C)C)N(C)C(=O)C[C@@H](C(=O)N2CCOCC2)N(C)C(=O)[C@H](C2CCCC2)N(C)C(=O)C2(CCCC2)NC(=O)[C@@H]2CC3(CC3)CN2C(=O)[C@H](CCc2ccc(C(F)(F)F)c(Cl)c2)NC(=O)CN(C)C(=O)[C@@H]1Cc1ccc(C(F)(F)F)cc1 [PP0295] ([NMeL]I[NEtG][Sar][NPrPhe(4-CF3)][Sar][hPhe(3-Cl-4-CF3)][Pro(4-spirocPr)][Ac5c][NMeGly(cPent)][NMeD]-Morpholide; lactam N-11) | B (a compound having 3 or more and less than 10 is denoted as B) | C (A compound having a KD ratio of 0.1 or more and less than 3 is denoted as C)
7.69 | CCCN1C(=O)CN(C)C(=O)CN(CC)C(=O)[C@H]([C@@H](C)CC)NC(=O)[C@H](CC(C)C)N(C)C(=O)C[C@@H](C(=O)N2CCOCC2)N(C)C(=O)[C@H](C2CCCC2)N(C)C(=O)C2(CCCC2)NC(=O)[C@@H]2COCCN2C(=O)[C@H](CCc2ccc(C(F)(F)F)c(Cl)c2)NC(=O)CN(C)C(=O)[C@@H]1Cc1ccc(C(F)(F)F)cc1 [PP0299] ([NMeL]I[NEtG][Sar][NPrPhe(4-CF3)][Sar][hPhe(3-Cl-4-CF3)][Morpholine(3S-CO)][Ac5c][NMeGly(cPent)][NMeD]-Morpholide; lactam N-11) | B (a compound having 3 or more and less than 10 is denoted as B) | B (a compound having 3 or more and less than 10 is denoted as B)
7.86 | CCCN1C(=O)CN(C)C(=O)[C@@H]2CCN2C(=O)[C@H]([C@@H](C)CC)NC(=O)[C@H](CC(C)C)N(C)C(=O)C[C@@H](C(=O)N2CCOCC2)N(C)C(=O)[C@H](C2CCCC2)N(C)C(=O)C2(CCCC2)NC(=O)[C@@H]2C[C@@H](OCC)CN2C(=O)[C@H](CCc2ccc(C(F)(F)F)c(Cl)c2)NC(=O)CN(C)C(=O)[C@@H]1Cc1ccc(C(F)(F)F)cc1 [PP0310] ([NMeL]I[Aze][Sar][NPrPhe(4-CF3)][Sar][hPhe(3-Cl-4-CF3)][Hyp](Et)[Ac5c][NMeGly(cPent)][NMeD]-Morpholide; lactam N-11) | B (a compound having 3 or more and less than 10 is denoted as B) | C (A compound having a KD ratio of 0.1 or more and less than 3 is denoted as C)
8.37 | CCCN1C(=O)CN(C)C(=O)CN(CC)C(=O)[C@H]([C@@H](C)CC)NC(=O)[C@H](CC(C)C)N(C)C(=O)C[C@@H](C(=O)N2CCOCC2)N(C)C(=O)[C@H](C2CCCC2)N(C)C(=O)C2(CCCC2)NC(=O)[C@@H]2C[C@@H](OC)CN2C(=O)[C@H](CCc2ccc(C(F)(F)F)c(Cl)c2)NC(=O)CN(C)C(=O)[C@@H]1Cc1ccc(C(F)(F)F)cc1 [PP0296] ([NMeL]I[NEtG][Sar][NPrPhe(4-CF3)][Sar][hPhe(3-Cl-4-CF3)][Hyp](Me)[Ac5c][NMeGly(cPent)][NMeD]-Morpholide; lactam N-11) | B (a compound having 3 or more and less than 10 is denoted as B) | C (A compound having a KD ratio of 0.1 or more and less than 3 is denoted as C)
